Patent publication US20080166396A1, “Boronate Medicaments Suitable for Short Duration Anticoagulation” (Trigen Holdings AG Clareville House, priority 2004, published 2008)
Counter-ions that a name gives are not always drawn. Marks after values point to notes of the source that are not given here.

Legend:
human α-thrombin = target: T1, human α-thrombin (Homo sapiens, UniProt P00734); settings: reported by Deadman et al, J. Med. Chem. 1995; cited from earlier work
T1 construct: 50 μl of human α-thrombin (0.25 NIHμ/ml) was added

[1] = Maximum aqueous solubility, salt shaken in water at 37° C., filtered, UV; type: physicochemical; settings: 25 mg of dried salt shaken in water at 37° C.
[2] = Stability: HPLC assay before and after drying over phosphorus pentoxide for 1 week; type: physicochemical; settings: listed as TRI 50c Lys salt; for Amount: 5 mg in 5 mL
Protocol: An assay of TRI 50c and its sodium and lysine salts before and after drying.
For sample analysis, 5 mg of dried and non-dried material was weighed in a 5 mL volumetric flask and dissolved in 1 mL acetonitrile and filled up with demineralised water to 5 mL.
The quantitative evaluation was performed using an HPLC-PDA method.

Thrombin Time (TT) = assay: Single oral doses of TGN 167 tablets in healthy male subjects; type: in vivo
Protocol: TGN 167 tablets described above were administered via the oral route to 10 healthy male subjects as single doses (randomised double blind placebo controlled study). The group consisted of 10 healthy male volunteers, 9 of whom received active compound and one of whom received placebo. An amendment was introduced for the last panel, allowing 15 subjects (instead of 9) to receive a 600 mg dose. The interval between each dose of TGN 167 was one week minimum. The allocation of the placebo was such that each volunteer would only receive placebo once during the course of the study.
Orally administered doses were: 75 mg (one tablet), 150 mg (two tablets), 300 mg (four tablets) and 600 mg (eight tablets).

[3] = Comparative storage stability of sodium and calcium salts (moisture-permeable packaging); type: physicochemical
Excerpt: In both studies the active pharmaceutical ingredient was stored in gray sealed double bags within a PE/PP screw cap closed cylinder.

[4] = Solubility of TRI 50c monosodium salt at different pH values / reconstitution; type: physicochemical
Excerpt: A first class of formulation, therefore, comprises particulate formulations, i.e. powders and granules, for oral administration after reconstitution into a liquid preparation, and preferably into a drinkable preparation. It is generally preferred for the liquid preparation to be a solution rather than a suspension and certain particulate formulations are for dissolving to form a drinking solution. The formulation may be for reconstitution into a suspension or more normally a solution having a volume of from about 50 ml to about 150 ml. The disclosure also contemplates reconstituted volumes of less than about 50 ml or of more than about 150 ml, e.g. of up to about 250 ml and more often of up to about 200 ml.
However, a solution with a pH of 9.5 will often be undesirably distasteful to drink. Accordingly, a pharmaceutically acceptable organic acid may be included in the particulate formulation in an amount selected to reduce the pH to a value at which the solution is more palatable but at which a solution of drinkable quantity (e.g. about 50 ml to about 150 ml) may be formed by reconstituting the particulate formulation. As the organic acid may be mentioned citric acid, tartaric acid or malic acid, for example. In many instances, citric acid is chosen.
In a first series of experiments, this amount of the salt was dissolved in 50 ml water to form a solution of approximately pH 9.5. Dilute aqueous HCl was added to determine how much the pH could be reduced before precipitation occurred.
In a second series of experiments, the same amount of the salt was dissolved in 150 ml water, and citric acid was added. […] Since acid solutions tend to be more palatable than alkaline ones, and citric acid is a common flavouring agent, this behaviour of the salt is highly beneficial. […] In general, it is contemplated that the boronate will be formulated to form a reconstituted solution having a pH of from 4 to 8, e.g. 4 to 7, optionally 5 to 6.

[5] = Excretion of administered dose as TRI 50c species; settings: in vivo
[6] = dry (1 week over phosphorus pentoxide)

Compound: COCCCC(NC(=O)C1CCCN1C(=O)C(Cc1ccccc1)NC(=O)OCc1ccccc1)B1OC(C)(C)C(C)(C)O1 [TRI 50b, Cbz-(R)-Phe-Pro-BoroMpg-OPinacol]
- Ki (human α-thrombin): 7 nM

Compound: CNC[C@H](O)[C@@H](O)[C@H](O)[C@H](O)CO.COCCC[C@H](NC(=O)[C@@H]1CCCN1C(=O)[C@@H](Cc1ccccc1)NC(=O)OCc1ccccc1)B(O)O [N-METHYL-D-GLUCAMINE SALT OF TRI50C]
- observation on dissolution [1]: fully dissolve

Compound: COCCC[C@H](NC(=O)[C@@H]1CCCN1C(=O)[C@@H](Cc1ccccc1)NC(=O)OCc1ccccc1)B([O-])O.[K+] [Potassium Salt of TRI50C]
- observation on dissolution [1]: left a white residue of undissolved material

Compound: COCCC[C@H](NC(=O)[C@@H]1CCCN1C(=O)[C@@H](Cc1ccccc1)NC(=O)OCc1ccccc1)B(O)O [Lithium Salt of TRI50C]
- observation on dissolution [1]: left a white residue of undissolved material

Compound: COCCC[C@H](NC(=O)[C@@H]1CCCN1C(=O)[C@@H](Cc1ccccc1)NC(=O)OCc1ccccc1)B(O)O [Lysine Salt of TRI50C]
- Amount [2, 6]: 813.3 µg/mL
- Purity [2, 6]: 90.17 % area
- Amount ([2]; non-dried): 809.8 µg/mL
- Purity ([2]; non-dried): 92.25 % area

Compound: COCCC[C@H](NC(=O)[C@@H]1CCCN1C(=O)[C@@H](Cc1ccccc1)NC(=O)OCc1ccccc1)B([O-])O.COCCC[C@H](NC(=O)[C@@H]1CCCN1C(=O)[C@@H](Cc1ccccc1)NC(=O)OCc1ccccc1)B([O-])O.[Ca+2] [TRI 50c calcium salt]
- time at which all TT had returned to baseline (Thrombin Time (TT); after oral administration): 10 h
- adverse clinical events (general or cardiovascular) (Thrombin Time (TT); oral, any dose, study period of 24 hours): no adverse clinical events
- Tri50c (w/w %, LOD corrected) ([3]; T = 0, LOD = loss on drying): (99.7) w/w %
- Tri50c (w/w %, LOD corrected) ([3]; T = 1, 25° C./60% r.h.): (101.5) w/w %
- Tri50c (w/w %, LOD corrected) ([3]; T = 1, 40° C./75% r.h.): (100.6) w/w %
- Tri50c (w/w %, LOD corrected) ([3]; T = 1, −20° C.): (102.7) ^x w/w %
- Tri50c (w/w %, LOD corrected) ([3]; T = 3, 25° C./60% r.h.): (104.3) w/w %
- Tri50c (w/w %, LOD corrected) ([3]; T = 3, 40° C./75% r.h.): (82.0) w/w %
- Tri50c (w/w %, LOD corrected) ([3]; T = 3, −20° C.): (103.0) ^x w/w %
- Tri50c (w/w %, LOD corrected) ([3]; T = 12, 25° C./60% r.h.): (94.8 w/w) w/w %
- observation on dissolution [1]: left a white residue of undissolved material

Compound: COCCC[C@H](NC(=O)[C@@H]1CCCN1C(=O)[C@@H](Cc1ccccc1)NC(=O)OCc1ccccc1)B(O)O.[Na+] [TRI 50c monosodium salt, Cbz-(R)-Phe-(S)-Pro-(R)-Mpg-B(OH)2 monosodium salt]
- concentration of boronate salt solution formed ([4]; at a pH of about 9.5): up to 600 mg/ml
- pH of solution ([4]; salt equivalent to 600 mg TRI 50c dissolved in 10 ml water): 9.88
- pH of solution ([4]; salt equivalent to 600 mg TRI 50c dissolved in 50 ml water): ~9.5
- Tri50c (w/w %, LOD corrected) ([3]; T = 0, LOD = loss on drying): 101.5 w/w %
- Tri50c (w/w %, LOD corrected) ([3]; T = 1, 25° C./60% r.h.): 103.6 w/w %
- Tri50c (w/w %, LOD corrected) ([3]; T = 1, 40° C./75% r.h.): 94.5 w/w %
- Tri50c (w/w %, LOD corrected) ([3]; T = 1, −20° C.): 104.3 w/w %
- Tri50c (w/w %, LOD corrected) ([3]; T = 3, 25° C./60% r.h.): 100.4 w/w %
- Tri50c (w/w %, LOD corrected) ([3]; T = 3, 40° C./75% r.h.): 52.2 w/w %
- Tri50c (w/w %, LOD corrected) ([3]; T = 12, 25° C./60% r.h.): 71.2 w/w %
- observation on dissolution [1]: left a white residue of undissolved material
- administered dose excreted as TRI 50c species [5]: 14%
